From EP1161410B1, “RETINOID ANTAGONISTS AND USE THEREOF” (Basilea Pharmaceutica AG, priority 1999, dated 2000)

What was measured:
TNF-α = TNF-α production by activated monocytes (SAC + IFN-γ); format: cell-based, human; conditions: SAC+IFN-γ alone 1840-2000 pg/ml
IL-12 [1] = experiment: IL-12 production by activated monocytes (SAC + IFN-γ), ELISA; format: cell-based, human; conditions: SAC+IFN-γ alone 120-126 pg/ml
Experimental: THP-1 cells were obtained from American Tissue Culture Collection and cultured in complete medium. […] Exp. Med. 183, 147-157 (1996)]. […] Supernatants were collected after 48 hours and freezed at -20 °C until assayed [[…]-Bordignon et al., J. Clin. Invest. 100, 1513-1519 (1997)]. […] Clin. Invest. 93, 1733-1739 (1994)]. […] Absorbance was read at 450-650 nm. The unknown IL-12 concentrations of the samples were read from the corresponding standard curve and multiplied by the corresponding dilution factor. […] Serial dilutions (1 μM-1 pM) were prepared in complete RPMI medium. 10 μl of each dilution was added to 1 ml culture.

neonatal mouse calvaria = experiment: Bone resorption assay, calcium release from neonatal mouse calvaria in tissue culture; format: cell-based, Swiss albino mice; conditions: for bone resorption induced by six different agents: inducers: calcitriol, all-trans RA, 9-cis RA, PGE2, TNFα, IL-1α (tables 6 to 11)
Experimental: A series of agents are known to induce or stimulate bone resorption. In this assay retinoid antagonists were tested for their capacity to inhibit or counteract the bone resorptive activity of bone resorption inducers.
Bone resorption was determined by quantification of calcium release from neonatal mouse calvaria (skull bones) in a tissue culture system, into supernatant medium. Calvaria were prepared from 4 days old mice (body weight 4-4.5 g) of time controlled mated Swiss albino mice. Frontal and parietal calvarial parts were dissected under a stereo-microscope and halved along the median suture. Half calvaria from all animals were randomly distributed to 6-well culture dishes (NUNC), containing stainless steel grids to support the bones at the interface of gas and medium. The tissue is incubated in BGJ medium (Bioconcept, Switzerland) according to a specified formulation supplemented with 1 mg/ml BSA (bovine serum albumin, SIGMA). Calvaria were cultured at 37°C in humidified atmosphere of 5% CO2 and 95% air. After 24 hours of preincubation, they were transferred to new dishes containing 1.7 ml fresh medium and test substances. Bone resorption inducers and retinoid antagonists were tested either as single agents or in combination. The cultures were then run for 72 hours. Calcium concentrations in culture supernatants were measured immediately after each incubation period. Stable, free calcium was determined in 25 µl samples with a spectrophotometric method using a methylthymol blue containing kit (Biomérieux), (E.M. Gindler and J.D. King, Am. J. Clin. Pathol. 1972, 58, 376-382). The resorptive response was expressed as µg calcium released per half calvarium during 3 days treatment.
Additional tests were done to examine calcium remaining in the calvaria. Calcium was extracted with 5% trichloroacetic acid (TCA) and determined in 50 µl samples after neutralization with NaOH. Furthermore, bone tissue viability was determined to exclude cytotoxicity. This was quantified by the colorimetric MTT tetrazolium test (T. Mosmann, J. Immunol. Methods 1983, 65, 55-63).
Bone resorption induced by the various agents was determined by measuring the amount of calcium released from half calvaria into the supernatant medium. Calcium release is indicated in µg per half calvarium in 1.7 ml medium. Calcium release from calvaria into medium as well as uptake of calcium from medium into calvaria can be measured. Efficacy of retinoid antagonists to inhibit the activity of bone resorption inducers is expressed as % inhibition. It is calculated from the difference between the amount of released calcium by bone resorption inducers alone and the amount of released calcium by their combination with retinoid antagonists. Retinoid antagonists alone induce neither calcium release nor uptake. Basal resorption rate in vehicle controls was 5 or less than 5%.

IL-12 [2] = experiment: IL-12 production by PBMC primed with IFNγ and stimulated with SAC; format: cell-based, human; conditions: IFNγ+SAC alone 360
Experimental: THP-1 cells were obtained from American Tissue Culture Collection and cultured in complete medium. To assay for IL-12 production, THP-1 cells, 1.25 x 10^6 cells/ml, were stimulated with S. aureus Cowan strain (SAC) (1/1000) and human recombinant interferon-γ (huIFN-γ (1000 U/ml) [Ma et al., J. Exp. Med. 183, 147-157 (1996)]. Alternatively, 0.5 x 10^6 human peripheral blood mononuclear cells (PBMC) (1 ml culture in 48 well plates) were primed with huIFN-γ (1000 U/ml) for 16 hours at 37°C, and then stimulated with SAC (1/1000). Supernatants were collected after 48 hours and freezed at -20 °C until assayed [Panina-Bordignon et al., J. Clin. Invest. 100, 1513-1519 (1997)].
IL-12 production was measured by specific enzyme linked immuno sorbant assay (ELISA), using 20C2 antibody (rat anti human IL-12 heterodimer p40-p35), at 2.5 µg/ml in coating buffer, and peroxidase-conjugated 4D6 antibody (rat anti human IL-12) at 250 ng/ml in assay buffer as described [Zhang et al., J. Clin. Invest. 93, 1733-1739 (1994)]. Standard (recombinant human IL-12, 800 pg/ml to 6 pg/ml) and samples (100 µl) diluted in assay buffer were added to duplicate wells. Absorbance was read at 450-650 nm. The unknown IL-12 concentrations of the samples were read from the corresponding standard curve and multiplied by the corresponding dilution factor. Maximal IL-12 production varied between 200 and 400 pg/ml.
Lyophilized retinoid antagonists were diluted in DMSO under yellow light, on ice at a concentration of 2 mM. Serial dilutions (1 µM-1 pM) were prepared in complete RPMI medium. 10 µl of each dilution was added to 1 ml culture.

[3] = 9-cis RA 0.1 μM + retinoid antagonist 1 μM
[4] = 9-cis RA 0.1 μM + retinoid antagonist 10 μM
[5] = 9-cis RA 1 μM + retinoid antagonist 10 μM
[6] = Calcitriol 0.3 nM + retinoid antagonist 1 µM
[7] = Calcitriol 1 nM + retinoid antagonist 1 µM
[8] = Calcitriol 3 nM + retinoid antagonist 1 µM
[9] = all-trans RA 0.1 μM + retinoid antagonist 1 μM
[10] = all-trans RA 0.1 μM + retinoid antagonist 10 μM
[11] = all-trans RA 1 μM + retinoid antagonist 10 μM
[12] = retinoid antagonist (1 µg) added after 16 hours together with SAC
[13] = retinoid antagonist (1 µg) added at time 0 together with IFNγ

Row | SMILES | TNF-α (TNF-α; antagonist 10 nM) [pg/mL] | TNF-α (TNF-α; antagonist 100 nM) [pg/mL] | TNF-α (TNF-α; antagonist 1000 nM) [pg/mL] | IL-12 (IL-12 [1]; antagonist 100 nM) [pg/mL] | IL-12 (IL-12 [1]; antagonist 1000 nM) [pg/mL] | Calcium release per half calvarium (neonatal mouse calvaria; [3]) [µg] | Inhibition of bone resorption by retinoid antagonists (neonatal mouse calvaria; [3]) [%] | Calcium release per half calvarium (neonatal mouse calvaria; [4]) [µg] | Inhibition of bone resorption by retinoid antagonists (neonatal mouse calvaria; [4]) [%] | Calcium release per half calvarium (neonatal mouse calvaria; [5]) [µg] | Inhibition of bone resorption by retinoid antagonists (neonatal mouse calvaria; [5]) [%] | Calcium release per half calvarium (neonatal mouse calvaria; [6]) [µg] | Inhibition of bone resorption by retinoid antagonists (neonatal mouse calvaria; [6]) [%] | Calcium release per half calvarium (neonatal mouse calvaria; [7]) [µg] | Inhibition of bone resorption by retinoid antagonists (neonatal mouse calvaria; [7]) [%] | Calcium release per half calvarium (neonatal mouse calvaria; [8]) [µg] | Inhibition of bone resorption by retinoid antagonists (neonatal mouse calvaria; [8]) [%] | Calcium release per half calvarium (neonatal mouse calvaria; [9]) [µg] | Inhibition of bone resorption by retinoid antagonist (neonatal mouse calvaria; [9]) [%] | Calcium release per half calvarium (neonatal mouse calvaria; [10]) [µg] | further results
1 | CCCCCCCOc1cc2c(cc1/C(C)=C/c1ccc(C(=O)O)cc1)C(C)(C)CCS2(=O)=O [Compound H, p-[(E)-2-[3',4'-Dihydro-4',4'-dimethyl-7'-(beptyloxy)-2'H-1-benzothiopyran-6'-yl]propenyl]benzoic acid 1',1'-dioxide] | 1392 | 1600 | 1912 | 102 | 251 | 4 ± 5 | 82 | -5 ± 3 | 123 | 28 ± 7 | 30 | 0 ± 3 | 100 | 4 ± 3 | 55.6 | 11 ± 6 | 15.4 | 2 ± 11 | 89.5 | -5 ± 4 | Inhibition of bone resorption by retinoid antagonist (neonatal mouse calvaria; [10]): 126.3%; Calcium release per half calvarium (neonatal mouse calvaria; [11]): -2 ± 3 µg; Inhibition of bone resorption by retinoid antagonist (neonatal mouse calvaria; [11]): 108.7%; bone resorption induced by six different agents (neonatal mouse calvaria): counteract bone resorption; PBMC IL-12 (IL-12 [2]; [12]): 401 pg/mL; PBMC IL-12 (IL-12 [2]; [13]): 503 pg/mL
2 | CCCCOc1c(\C(C)=C/C=C/C(C)=C/C(=O)O)cc(C(C)(C)C)cc1C(C)(C)C [Compound B, (2E,4E,6Z)-7-(3,5-di-tert.butyl-2-butyloxyphenyl]-3-methyl-2,4,6-octatrienoic acid] | 1484 | 1812 | 1560 | 161 | 298 | 2 ± 5 | 33.3 | -4 ± 3 | 123.5 | -6 ± 2 | 133.3 | -1 ± 2 | 125 | 5 ± 3 | 44.4 | 4 ± 4 | 69.2 | 5 ± 4 | 61.5 | -3 ± 4 | IL-12 (IL-12 [1]; antagonist 10 nM): 106 pg/mL; Inhibition of bone resorption by retinoid antagonist (neonatal mouse calvaria; [10]): 123.1%; Calcium release per half calvarium (neonatal mouse calvaria; [11]): 10 ± 7 µg; Inhibition of bone resorption by retinoid antagonist (neonatal mouse calvaria; [11]): 41.2%; bone resorption induced by six different agents (neonatal mouse calvaria): counteract bone resorption; PBMC IL-12 (IL-12 [2]; [12]): 367 pg/mL; PBMC IL-12 (IL-12 [2]; [13]): 568 pg/mL
